{"source": "patent US10668102B2", "about": "“Lineage differentiation of encapsulated embryonic stem cells” (Rutgers, The State University of New Jersey, priority 2010, dated 2020)", "key": {"[1]": {"system": "encapsulated ES cells", "assay": "Three dimensional alginate poly-L-lysine encapsulated oligodendrocyte differentiation, immunofluorescence", "type": "cell-based, mouse", "conditions": "for O1 expression / CNPase expression / MBP expression: IMDM + RA 8 days then PPAR agonist; for CNPase expression: peak", "procedure": "The alginate encapsulation process was done using the protocol setup by Maguire, T., et al., Biotechnol. Bioeng., 93(3):581-91(2006). Briefly, an alginate solution was generated by dissolving 2.2 g of alginate (Sigma-Aldrich, MW: 100,000-200,000 g/mol, GContent: 65%-70%) in 100 mL of Ca^2+ free DMEM, using a heated magnetic stir plate at a temperature of 45° C. The solution was then filtered using a 25-micron syringe filter (Fisher Brand, Pittsburgh, Pa.). A confluent monolayer of undifferentiated ES cells were removed following trypsin incubation, centrifuged for 10 min at 1,000 rpm, and resuspended in PBS. The cells were washed twice more with PBS, resuspended in 2 mL of their respective media (IMDM, IMDM+Retinoic Acid (RA) (1×10^−7M), DMEM/F12+N2) and both cell number and viability assessed using the method of trypan blue (Gibco) exclusion. To create the cell-alginate mixture, 1 mL of cell suspension with a density of 50×10^6 cells/mL was added to 9 mL of a 2.2% (w/v) alginate solution to yield a final cell density of 5×10^6 cells/mL and a final alginate concentration of 2.0% (w/v). This solution was transferred to a 10 mL syringe (BD Biosciences), which, in turn was connected to a syringe pump (KD Scientific, Holliston, Mass.). Alginate beads were generated using an electrostatic bead generator (Nisco, Zurich, Switzerland) at a flow rate of 40 mL/h, and an applied voltage of 6.5 kV, resulting in beads with a diameter of 500 μm. The beads were collected in a 200 mL bath of CaCl2 (100 mM) (Sigma-Aldrich), containing 145 mM NaCl (Sigma-Aldrich), and 10 mM MOPS (Sigma-Aldrich) and were left to polymerize for 10 minutes at room temperature. Beads were transferred to a tissue culture treated 1-25 flask (Falcon, BD Biosciences), following the polymerization step. The CaCl2 solution was removed using a 5 mL pipette, and the beads were washed with 5 mL of HEPES (Gibco). The HEPES was removed and the beads were re-suspended in 5 mL of poly-L-lysine (PLL) (Sigma-Aldrich, MW: 68,600 g/mol) (0.05% w/v) for 2 min. The PLL was then gently removed, replaced with HEPES to wash the beads and the beads were ultimately re-suspended in 5 mL of cell culture media. Media was changed every 4 days post-encapsulation. In all experimental conditions, monolayer culture configurations were used as controls.\nCells were fixed for immunofluorescence analysis on Days 8, 14, 18 and 22.\nCells were fixed before doing any immunofluorescence.\nSpecimens were excited using a 488 nm filter."}, "[2]": {"system": "ESD3 cells", "assay": "Oil Red O staining of monolayer ESD3 cells", "type": "cell-based, mouse", "conditions": "2D, by Day 30", "procedure": "After the cells were fixed using 4% paraformaldehyde, they were then washed twice with PBS and rinsed once with 60% isopropanol (Sigma) for 5 minutes. A 0.18% Oil Red O (Sigma) solution in diH2O was then added to the cells for 10 minutes (diluted down from a 0.3% stock solution of Oil Red O in 99% isopropanol and filtered through filter paper). The cells were then rinsed several times with PBS (30 second rinses) until all excess Oil Red O was removed. […] Images were taken using an Olympus CKX-41 microscope with an Olympus Magnafire Color Camera and Magnafire software v.2.1C.\nOil Red O is a fat-soluble dye used for the staining of neutral triglycerides and lipids and among other things is used to detect myelin and myelin degradation products (Boven, L. A., et al., Brain, 129(Pt 2):517-526 (2006); Zou, T., et al., J. Neuropathol. Exp. Neurol., 65(1):78-86 (2006))."}, "[3]": {"system": "ESD3 cells", "conditions": "for cell morphology / CNPase expression over time / O1 expression over time: 2D; for cell morphology: Day 30, after 14 days of agonist exposure; for CNPase expression over time / O1 expression over time: agonist from Day 16 to Day 30", "source_text": "In order to induce differentiation, cells were replated into gelatin coated 6 well plates (Biocoat, BD-Biosciences, Bedford, Mass.) at a density of 1×10^4 cells/cm^2. Cells were placed in DMEM/F12 (Invitrogen, Carlsbad, Calif.) media supplemented with 1% N-2 (Invitrogen—contains human transferrin, insulin, progesterone, putrescine and selenite), 100 U/mL penicillin and 100 U/mL streptomycin for 8 days. Every 2 days, media was aspirated and replaced with fresh media. On day 8, the cells were replated at a density of 0.5×10^4 cells/cm^2 into 24 well plates (Falcon, BD Biosciences, San Jose, Calif.) that were precoated with 0.1% Gelatin (Sigma-Aldrich) for 1 hour at 37° C. To aid in cell attachment, 10 ng/ml basic fibroblast growth factor (bFGF) was added. From day 8 to day 16, 1% Fetal Bovine Serum (FBS-Invitrogen) is added. Every 2 days, media was aspirated and replaced with fresh media.\nOn day 16, the cells are replated at a density of 0.5×10^4 cells/cm^2 into the same differentiation media supplemented with either 10 μM PPAR alpha (Sigma-Aldrich: WY-14643), 1 μM PPAR delta (Sigma-Aldrich: GW0742), or 10 μM PPAR gamma (Sigma-Aldrich: GW1929). All three agonists were dissolved in 0.05% DMSO (Sigma-Aldrich). Every 2 days, media was aspirated and replaced with fresh media with agonists. Cells were fixed for immunofluorescence analysis on Days 22, 26 and 30.\nCells were fixed before doing any immunofluorescence. This was done by first washing the cells 3 times in Tris Buffered Saline (TBS) followed by incubating the cells in 4% paraformaldehyde (Sigma-Aldrich) for 15 minutes at room temperature. The cells were again washed 3 times in TBS for 5 minutes at room temperature). In order to reduce non-specific binding of the antibodies to proteins on/within the cells, they were first blocked for 45 minutes at room temperature by incubating the cells with TBS, 10% goat serum (Invitrogen), 1% Bovine Serum Albumin (BSA-Sigma) and depending on if the protein in question is intracellular, 0.1% Triton X-100. The cells were then incubated overnight at 4° C. with the respective primary antibody in TBS, 1% goat serum and if the protein in question was intracellular, 0.1% Triton X-100. The antibodies used were: 5 μg/ml mouse anti-A2B5 IgM (Chemicon), 2 μg/ml mouse anti-O1 IgM (R&D Systems, Minneapolis, Minn.), 12.6 μg/ml mouse anti-CNPase (2′, 3′-cyclic nucleotide 3′-phosphodiesterase) IgG1 (Sigma) and 8 μg/ml rabbit anti-Myelin Basic Protein IgG (MBP—abcam, Cambridge, Mass.). To account for non-specific binding, isotype controls were used for each antibody: for A2B5 and O1—mouse IgM (Chemicon), for CNPase—mouse IgG1 (BD Biosciences) and for MBP—rabbit IgG (Invitrogen). The cells were washed 3 times for 5 minutes in TBS and if the protein in question was intracellular, 0.1% […]. The cells were then incubated for 1 hour at room temperature with the respective secondary in TBS and if the protein in question is intracellular, 0.1% Triton X-100. The secondaries used were: for A2B5 and O1—Alexa Fluor 488 goat anti-mouse IgM (Invitrogen—1:500), CNPase—Alexa Fluor 488 goat anti-mouse IgG1 (Invitrogen—1:500) and MBP—Alexa Fluor 488 goat anti-rabbit IgG (Invitrogen—1:500). The cells were then washed 2 times in TBS for 5 minutes at room temperature. The cells were counterstained with Hoechst 33342 (Invitrogen) for 10 minutes at room temperature (1 μg/ml).\nFluorescent images were acquired using a computer interfaced inverted Olympus IX70 microscope. Specimens were excited using a 488 nm filter. Fluorescent intensity values were determined for each cell using Olympus Microsuite™ software. Experimental intensity values for each cell were calculated after subtracting the average intensity of the isotype control."}, "[4]": {"system": "encapsulated ES cells", "assay": "Intracapsular immunofluorescence of neural lineage markers and albumin in encapsulated ES cells", "type": "cell-based, mouse", "conditions": "2.2% alginate, 10^-7 M retinoic acid", "protocol": "Alginate solution was prepared by dissolving 2.2 g of alginic acid sodium salt (MW: 100,000-200,000 g/mol, G Content: 65%-70%, Sigma-Aldrich) in 100 mL of Ca^2+ free DMEM (Gibco), using a heated magnetic stir plate at a temperature of 65° C. The solution was then filtered using a 45 μm syringe filter (Fisher Scientific, Pittsburgh, Pa.). To create the cell-alginate mixture, 1 mL aliquot of cell suspension with a seeding density of 5×10^7 cells/mL was added to 9 mL of either 1.2%, 1.7%, 2.2% or 2.5% (w/v) alginate solution to yield a final cell seeding density of 5×10^6 cells/mL. This solution was transferred to a 10 mL syringe, and was connected to a syringe pump (KD Scientific, MA). Alginate beads were generated using an electrostatic bead generator (Nisco, Zurich, Switzerland) at a flow rate of 40 mL/h, and an applied voltage of 6.4 kV. The beads were extruded into a 200 mL bath of CaCl2 (100 mM), containing 145 mM NaCl, and 10 mM MOPS (all from Sigma-Aldrich) and were left to polymerize for 10 min at room temperature (Maguire, T., et al., Biotechnol. Bioeng., 93(3):581-591 (2006)). Beads were then transferred to a tissue culture treated T-25 flask. The CaCl2 solution was removed using a 5 mL pipette, and the beads were washed with 5 mL of HEPES (Gibco). The HEPES was removed and the beads were resuspended in 5 mL of poly-L-lysine (PLL) (Sigma-Aldrich, MW 68,600 g/mol) (0.05% w/v) for 2 min. The PLL was then gently removed, replaced with HEPES to wash the beads and the beads were ultimately resuspended into 5 mL of IMDM medium (Invitrogen, Carlsbad, Calif.) media with and without 10^−7M trans-retinoic acid (Bain, G., et al., Dev. Biol., 168(2):342-357 (1995)). Media was changed at days 4, 8, 12, 16 and 20 post-encapsulation.\nTo assess the effect of RA on lineage commitment within the alginate microenvironment, individual cells were examined within the encapsulated population using indirect immunofluorescence analysis with a panel of neural lineage specific antibodies, including neurofilament 160 kD (neuronal marker), O1 (oligodendrocyte marker) and GFAP (astrocyte marker). Specific antibody binding was assessed relative to a non-specific immunoglobulin control.\nAfter assessing the neural specific markers, the inventors also investigated the effects of different alginate concentrations, e.g., 1.2%, 1.7% and 2.5%, on neural differentiation in the alginate encapsulation microenvironment.\nEncapsulated cells were washed with PBS (Gibco) and fixed on days 4, 8, 12, 16 and 20 with 4% paraformaldehyde to evaluate surface proteins or together with 0.25% Triton-X to evaluate intracellular protein expression. […]"}, "[5]": {"system": "encapsulated ES cells", "assay": "Three dimensional alginate poly-L-lysine encapsulated oligodendrocyte differentiation, immunofluorescence", "type": "cell-based, mouse", "conditions": "3D encapsulated, IMDM with Retinoic Acid, Day 12"}, "[6]": {"system": "ES cell line D3", "assay": "Cell number and viability of alginate-encapsulated ES cells (trypan blue after depolymerization)", "type": "cell-based, mouse", "conditions": "2.2% w/v alginate, 5×10^6 cells/mL, with RA", "protocol": "All cell cultures were incubated in a humidified 37° C., 5% CO2 environment. The ES cell line D3 (ATCC, Manassas, Va.) was maintained in an undifferentiated state in T-75 gelatin-coated flasks (Biocoat, BD-Biosciences, Bedford, Mass.) in Knockout Dulbecco's modified Eagles medium (Gibco, Grand Island, N.Y.) containing 15% knockout serum (Gibco), 4 mM L-glutamine (Gibco), 100 U/ml penicillin (Gibco), 100 U/ml streptomycin (Gibco), 10 mg/ml gentamicin (Gibco), 1,000 U/ml ESGRO™ (Chemicon, Temecula, Calif.) and 0.1 mM 2-mercaptoethanol (Sigma-Aldrich, St. Louis, Mo.). Media was changed every two days until plates were confluent. ES cultures were split and passaged every 6 days. Following media aspiration, cells were washed with 10 mL of phosphate buffered solution (PBS) (Gibco), detached using 3 mL of trypsin EDTA (Gibco) for 3 minutes, and subsequently 12 mL of Knockout DMEM was added. Cells were then replated in gelatin-coated T-75 flasks at a density of 1 million cells/mL and only passages 10 through 25 were used in the experiments. In order to induce differentiation, cells were cultured in Iscove's modified Dulbecco's medium (Gibco) containing 20% fetal bovine serum (Gibco), 4 mM L-glutamine (Gibco), 100 U/ml penicillin (Gibco), 100 U/ml streptomycin (Gibco), 10 mg/ml gentamicin (Gibco) in the presence or absence of 10^−7M trans-retinoic acid (Sigma-Aldrich). […]"}, "[7]": {"system": "encapsulated ES cells", "assay": "Intracapsular aggregate size of encapsulated ES cells", "type": "cell-based, mouse", "conditions": "in the presence of retinoic acid, entire differentiation period", "protocol": "Bright field images were acquired using an Olympus IX70 microscope and an Olympus digital camera. For each microcapsule, 5 z-sectional images were taken at 50 μm intervals to avoid multiple quantification of the same aggregate, for a total depth of 250 μm. Image quantification was conducted using Olympus Microsuite imaging analysis software."}}}
{"smiles": "Cc1cccc(Nc2cc(Cl)nc(SCC(=O)O)n2)c1C", "note": "[PPAR alpha, WY-14643]", "values": [{"measurement": "MBP expression over time", "setting": "[1]; 3D, IMDM + RA 8 days then PPAR agonist for 14 days", "value": "stays pretty constant over the time period"}, {"measurement": "O1 expression", "setting": "[1]; 3D, day 18", "value": "~35", "unit": "%"}, {"measurement": "O1 expression", "setting": "[1]; 3D, day 22", "value": "~15", "unit": "%"}, {"measurement": "CNPase expression", "setting": "[1]; 3D, day 22", "value": "about 60%"}, {"measurement": "Oil Red O stain compared to control", "setting": "[2]", "value": "minimal effect compared to control"}, {"measurement": "cell morphology", "setting": "[3]", "value": "majority of cells have extended processes with some having secondary branching"}, {"measurement": "CNPase expression over time", "setting": "[3]", "value": "increases over the initial 6 days and stabilizes for the remaining 8 days"}, {"measurement": "O1 expression over time", "setting": "[3]", "value": "drops consistently over the 14 day period"}]}
{"smiles": "Cc1cc(SCc2sc(-c3ccc(C(F)(F)F)c(F)c3)nc2C)ccc1OCC(=O)O", "note": "[PPAR delta, GW0742]", "values": [{"measurement": "differentiation at various concentrations", "setting": "[1]; 3D, 0.1 μM, 1 μM and 10 μM", "value": "No significant differences"}, {"measurement": "MBP expression", "setting": "[1]; 3D, day 22", "value": "~80", "unit": "%"}, {"measurement": "CNPase expression", "setting": "[1]; 3D, day 22", "value": "about 40%"}, {"measurement": "Oil Red O stain compared to control", "setting": "[2]", "value": "significantly higher than control"}, {"measurement": "cell morphology", "setting": "[3]", "value": "majority of cells have extended processes with some having secondary branching"}, {"measurement": "CNPase expression over time", "setting": "[3]", "value": "gradually increases over the 14 day period"}, {"measurement": "O1 expression over time", "setting": "[3]", "value": "drops sharply over the last 8 days"}]}
{"smiles": "CN(CCOc1ccc(C[C@H](Nc2ccccc2C(=O)c2ccccc2)C(=O)O)cc1)c1ccccn1", "note": "[PPAR gamma, GW1929]", "values": [{"measurement": "O1 expression", "setting": "[1]; 3D, day 14", "value": "about 42%"}, {"measurement": "MBP expression", "setting": "[1]; 3D, day 18", "value": "about 74%"}, {"measurement": "MBP expression", "setting": "[1]; 3D, day 22", "value": "about 45%"}, {"measurement": "O1 expression", "setting": "[1]; 3D, day 22", "value": "about 22%"}, {"measurement": "CNPase expression", "setting": "[1]; 3D, day 22", "value": "~53", "unit": "%"}, {"measurement": "Oil Red O stain compared to control", "setting": "[2]", "value": "significantly higher than control"}, {"measurement": "cell death compared to all other cases", "setting": "[3]", "value": "significant increase in cell death"}, {"measurement": "cell morphology", "setting": "[3]", "value": "two distinct morphologies"}, {"measurement": "CNPase expression over time", "setting": "[3]", "value": "large increase over the initial 10 days thereafter stabilizing"}, {"measurement": "O1 expression over time", "setting": "[3]", "value": "gradually tapers over the 14 day period"}]}
{"smiles": "CC1=C(/C=C/C(C)=C/C=C/C(C)=C/C(=O)O)C(C)(C)CCC1", "note": "[retinoic acid, trans-retinoic acid]", "values": [{"measurement": "encapsulated cells stained positively for intracellular albumin", "setting": "[4]", "value": "less than 5%"}, {"measurement": "maximum percentage of encapsulated cells positively stained for GFAP", "setting": "[4]", "value": 38.6, "unit": "%"}, {"measurement": "maximum percentage of encapsulated cells positively stained for NF 150 kD", "setting": "[4]", "value": 41.9, "unit": "%"}, {"measurement": "maximum percentage of encapsulated cells positively stained for O1", "setting": "[4]", "value": 32.3, "unit": "%"}, {"measurement": "A2B5 expression (highest, as stated in text)", "setting": "[1]; 3D encapsulated, exposure to RA for 16 days", "value": 44, "unit": "%"}, {"measurement": "CNPase expression", "setting": "[5]", "value": 32, "unit": "%"}, {"measurement": "O1 expression", "setting": "[5]", "value": 32, "unit": "%"}, {"measurement": "final density relative to the initial seeding density", "setting": "[6]; 20-day culture", "value": 2.5, "unit": "times"}, {"measurement": "Cell viability", "setting": "[6]; throughout the culture period", "value": "greater than 95%"}, {"measurement": "size of individual cells", "setting": "[7]", "value": "approximately 13 μm"}]}
